# Patent US20230022705A1, “Topical Delivery System Containing Cellulose Nanofibers” (ELC Management LLC, priority 2019, published 2023)
# Like-named read-outs stand apart in the source and are kept apart here.
# Tested on: MatTek 300 skin (a skin model constructed from live cells)
# Assay: Penetration study using MatTek skin, formulation with vs without cellulose nanofibers, UPLC analysis
# Type: in vitro ADME
# Method: A testing formulation with and without nanocellulose and various skin care actives was prepared. The formulation was prepared by mixing the Phase I components until all of the solids were dissolved (e.g., about 10-15 min). The Phase 2 components were added to the Phase 1 components and mixed until lump free (e.g., about 10 min). The Phase 3 components were pre-mixed until lump free and slowly added to the initial mixture and mixed until uniform (e.g., about 30 min). The Phase 4 components were mixed until uniform and slowly added to the initial mixture and mixed to uniformity (e.g., about 15-20 min). The Phase 5 components were premixed and then added to the mixture and mixed until uniform (e.g., about 15-20 min). The Phase 6 components were added to the mixture under Silverson to adjust the pH to about 5.5 to 6.5 to increase the stability of the AA2G and mixed until lump free (e.g., about 15-20 min). A penetration study was then performed using the base formula without nanocellulose as a control. […] In a 6-well plate, MatTek 300 skin (a skin model constructed from live cells, obtained from MatTek) was placed in the well with 2.00 mL of incubation medium (also provided by MatTek). The medium was removed, and 2.0 mL of phosphate buffer saline/propandiol (PBS/PPD) 1:1 mixture was added. The PBS/PPD mixture was then removed. This washing process was repeated twice. Then 2.0 mL of the PBS/PPD mixture was added as the collection phase. To the top of each skin, 400 μl of a sample was loaded. The skin was then incubated at 37° C. for 72 hours. Finally, the PBS/PPD collection phase was filtered through 0.45 μm PTFE syringe filter into high performance liquid chromatography (HPLC) vials. Waters ACQUITY H ultra-performance liquid chromatography (UPLC) was used to analyze the collected samples from the penetration study.
structure (smiles),measurement,setting,value
"CC1=C(/C=C/C(C)=C/C=C/C(C)=C/CO)C(C)(C)CCC1 [Retinol, reference compound]","penetration within the skin, composition with nanocellulose vs without (in words)",,reduced
same,rate of release from composition with nanocellulose (in words),,slower rate of release
OCCOc1ccccc1 [phenoxyethanol],"penetration efficacy, composition with nanocellulose vs without (in words)",,not increased
"O=C1O[C@H]([C@@H](O)CO)C(O)=C1O[C@H]1O[C@H](CO)[C@@H](O)[C@H](O)[C@H]1O [AA2G, ascorbic acid 2-glucoside]","penetration efficacy, formulation with cellulose nanofibers vs without (in words)",,significantly enhanced
O=C(c1ccccc1)c1ccccc1 [benzophenone],"penetration efficacy, composition with nanocellulose vs without (in words)","benzophenone 4% (w/w of the total composition), sunscreen formulations",directionally reduced
COc1ccc(CCCc2ccc(O)cc2O)c(OC)c1C [UP302],"penetration efficacy, formulation with cellulose nanofibers vs without (in words)","MatTek 300 skin, 37° C., 72 hours, PBS/PPD collection phase","modulated, reduced, and limited"
